Test results taken from a melting point compilation (Tetko et al.; mined from patent text by program, amines drawn as free bases though some values may be those of a salt).

SMILES	melting point [°C]
O=C(O)c1cccc2ncc(C3CCCCC3)cc12	> 280
CN1C(=O)N(CCC(=O)O)C(C)(C)C1=O	103
Cc1c(N)cc(C(C)(C)C)cc1N	97.3
CSc1ccc(Oc2ccc(N)cc2)c(C)c1	162
CC(=O)OCC1OC(Oc2cc(C)cc(O)c2C(C)=O)C(OC(C)=O)C(OC(C)=O)C1OC(C)=O (stereo not drawn)	140 to 142
CC1(C)CCC(C)(C)c2cc(-c3cc(-c4ccc(C=O)cc4)ccc3-c3ccccc3)ccc21	120 to 122
C[C@@H](O)[C@H]1C(=O)N(CC(=O)OC(C)(C)C)[C@@H]1C(=O)OC(C)(C)C	79 to 81
CC1(C)C(=O)Oc2ccc(C#N)cc21	138 to 140
N#CC(C#N)=C1N(CCCCN2CCCCC2)CCN1CCCCN1CCCCC1	96 to 98
Cc1cccc(S(=O)(=O)n2ccc(Br)c2)c1C#N	98 to 100
CCC(=O)N1CCNC1=NC#N	208 to 210
CC(Nc1c(-c2ccc(C#N)cc2)c(=O)c1=O)C(C)(C)C (stereo not drawn)	192 to 194
CCCCC(CNc1ncc(OC)c(C)n1)c1ccccc1 (stereo not drawn)	39 to 40
Cc1nn(-c2cc3nc(S)sc3cc2F)c(=O)n1C	299 to 301
Clc1ccc2c(c1)NCc1ccccc1O2	94 to 95
CC(C)(C)n1nc(-c2ccc(Cl)cc2)c2c(N)c(C#N)cnc21	213 to 215
COc1cc2ncn(CCO)c(=O)c2cc1OC	130
Nc1ccc(S(=O)C(F)(F)C(F)F)cc1F (stereo not drawn)	67 to 69
COC(=O)[C@H](CC(C)C)NC(=O)c1ccco1	88 to 90
CCOC(=O)N(C)c1c(OC)cc(Cc2cnc(N)nc2N)cc1OC	187 to 188
COc1cc(Nc2c(C#N)cnc3cc4c(cc23)ncn4CCN2CCOCC2)c(C)cc1Cl	246 to 248
CCCc1n[nH]c(=O)c2c(C)ncn12	168 to 170
O=c1[nH]cnc2ccc(-c3cccnc3)cc12	240 to 246
O=c1[nH]nc(Cc2ccncc2)c2c1CCCC2	193 to 194

SMILES	melting point [°C]
CCN(CC)c1nn2ccccc2c1C(C)=O	59.5 to 60
CSc1nc(O)nn1C(C)C	90 to 92
Cc1cc(C(=O)O)c(NC(=O)C(C)C)s1	160 to 162
CCCCCCCCCCCCn1c2cc(Br)ccc2c2ccc(Br)cc21	78 to 79
O=C1NCCN1c1cccc([N+](=O)[O-])c1	158 to 160
Cn1cnc2cc(NC(=O)c3cc4cc(F)cnc4n3Cc3cccc(F)c3)ccc21	266 to 268
COc1cccc(C2CCCCNC2=O)c1 (stereo not drawn)	116 to 117
O=C1OCc2ncccc21	113 to 118
COc1ccc(C2=NN(CCCCN)C(=O)[C@H]3CC=CC[C@@H]23)cc1OC (relative stereo)	108 to 109
COc1ccc(N2CCN(c3c(C)c(C)c4c(c3C)C(N3CCCCC3)C(C)(C)O4)CC2)cc1OC (stereo not drawn)	134 to 135
CN1CCCN(Cc2nc3ccccc3[nH]2)CC1	152 to 155
Nc1c(Cl)ncnc1Nn1ccc2ccccc21	175 to 176
CCOC(=O)c1c(C)nc(Cl)c([N+](=O)[O-])c1NCCCN(C)C	20
C=C(COCc1ccccc1)C(O)C(NC=O)C(=O)OCC (stereo not drawn)	112 to 114
CCCCc1ccc(-c2[nH]c(=O)n(C3CCCCC3)c2C)cc1	236
CCc1noc(-c2cn(-c3cnccn3)cn2)n1	166 to 167
Oc1ccc2c(c1)C(n1cc[nH]c1=S)CCC2 (stereo not drawn)	195 to 196
Cc1c(Br)ccc(N)c1S(C)(=O)=O	103 to 106
COc1ccc2c(C(C)C(=O)O)cnc(Cl)c2c1 (stereo not drawn)	167 to 168
Nc1c(C(=O)O)sc2cc(F)ccc12	160 to 163
CCONS(=O)(=O)c1ccc(C)cc1	94 to 95
CCCc1c(OCC2CO2)ccc(C(C)=O)c1O (stereo not drawn)	53 to 55
CC(C)(C)[C@H]1Cn2c(nc3c(C4OCCO4)cccc32)-c2ccccc2O1	150 to 152
COC(=O)c1ccc(N2CCNC2=O)cc1	> 200

The next lines start with the values.

melting point [°C]	SMILES
136 to 139	CC(C)c1cc(C(=O)CON2C(=O)c3ccccc3C2=O)cc(C(C)C)c1O
295 to 305	N#Cc1cnc2cc(O)ccc2c1Nc1ccc(Cl)cc1F
113 to 115	COc1ccc(-c2nc(Sc3ccc(Cl)c(Cl)c3)[nH]c2-c2ccc(OC)cc2)cc1
88 to 89	C=CCc1cc2c(cc1OCC=Cc1ccccc1)CCC(=O)N2CC=Cc1ccccc1
250 to 252	CN(C(=O)C1CCCCC1)c1ccccc1C(c1ccc(O)cc1)c1ccc(O)cc1
93 to 95	COc1ccc(-c2ccc(C#N)cc2)nc1
178	CC(C)(C)OC(=O)Nc1ccc(C#Cc2ccccn2)cc1N
182	CCCc1nc2c(C)cc(C)nc2n1Cc1ccc(-c2ccccc2-c2c(O)c(=O)c2=O)cc1
166 to 168	COC(=O)C1CC(C#N)(c2cccc3ccccc23)CCC1=O (stereo not drawn)
140 to 142	COCCOc1ccc2c(c1)C1(CO2)C(=O)N(Cc2ccccn2)c2ccccc21 (stereo not drawn)
167 to 168	CCOC(=O)c1coc2cc(NS(C)(=O)=O)c(Oc3ccccc3)cc2c1=O
168	CC(=O)N[C@@H](C)COc1ccc2nc(-c3ccc(OCC4CC4)c(F)c3F)oc2c1F
69 to 71	O=C(c1ccc(Cl)cc1)C1(Oc2ccc(Cl)cc2)CC1
255 to 256	O=C(C=Cc1cc(O)c(O)c([N+](=O)[O-])c1)c1ccc([N+](=O)[O-])cc1
228 to 229	COC(=O)c1cccc(C(=O)NC(Nc2c(Nc3cccnc3)c(=O)c2=O)C(C)(C)C)c1 (stereo not drawn)
182 to 184	CC(C)CN1CCCC1CNC(=O)c1cc(S(N)(=O)=O)cc2c1OC(C)C2 (stereo not drawn)
192 to 194	Cc1c(C)c2c(c(C)c1OCc1ccccc1)CCC(C)(CN1CCN(CCOc3ccc(C=C4SC(=O)NC4=O)cc3)CC1)O2 (racemic)
> 250	COc1cc2c(Nc3ccc(Cl)cc3F)ncnc2cc1OCCN1CCNC1=O
109 to 110	O=C1c2ccccc2C=C(Cl)Cc2ccccc21
148 to 151	Cn1cc(C(=O)c2ccc3ccccc3c2)cc1C(=O)CCl
275 to 278	CCCC(NC(=O)Nc1ccc(Cl)cc1)P(=O)(c1ccccc1)c1ccccc1 (stereo not drawn)
269	CC1(C)CCc2cc(C(=O)c3ccc4cc(C(=O)O)ccc4c3)ccc2O1
80 to 83	O=C(C=C(O)c1cccs1)C1CCN(Cc2ccccc2)CC1
236	COC(=O)COc1ccc2c(c1)Oc1cc(O)ccc1C21OC(=O)c2ccccc21 (stereo not drawn)
128 to 130	CCNc1cccnc1N1CCN(C(=O)c2ccc(C(=O)NC(C)(C)CO)cn2)CC1
266 to 268	NC1Cc2ccccc2CN(CC(=O)O)C1=O (stereo not drawn)
174 to 176	Cc1cc(N(C)Cc2ccc(-c3ccc(Cl)cc3)nc2)ccc1OCC(=O)O
110 to 111	CCOCc1nc2cnc3cc(OCc4ccccc4)ccc3c2n1CC1COC(C)(C)O1 (stereo not drawn)

melting point [°C]	SMILES
198	CCN(CC)c1ccc(CN2C(=O)C(C)(c3ccccc3Cl)c3cc(Cl)ccc32)c(OC)c1 (stereo not drawn)
143 to 145	CC(C)C(=O)O[C@H]1[C@H](C)OC(=O)[C@@H](NC(=O)OC(C)(C)C)COC(=O)[C@@H]1Cc1ccccc1
202 to 205	CC1(C)CCC(C)(C)c2cc(OCc3ccc(CC(N)=O)cc3)ccc21
181 to 183	Brc1cn(C(c2ccccc2)(c2ccccc2)c2ccccc2)nc1-c1ccccc1
224 to 227	Nc1cc(Oc2ccc(CCO)cc2)c(N)c2c1C(=O)c1ccccc1C2=O
117 to 119	COc1ccc(NCC(=O)N2CCC(Cc3ccccc3)CC2)cc1
144 to 146	O=C(Nc1ccc(C(=O)N2CCCCc3ccccc32)c(Cl)c1)OCCOc1ccccc1
247 to 250	COc1cc(-c2ccc3c(c2)CC[C@H]2N(C)C(=O)CC[C@]32C)ccc1O
173 to 175	CN1C(=O)CC[C@]2(C)c3ccc(C=Cc4ccccc4)cc3CC[C@@H]12
255 to 256	CC1CC(=NNc2ccccc2)c2ncc(C(=O)O)c(=O)n2C1 (stereo not drawn)
172 to 173	Cc1cnc(CNC(=O)c2sc(N3CCN(Cc4ccc(C(F)(F)F)cc4)C3=O)nc2C)cn1
211 to 214	CC(=O)n1ccc(-c2ccc(F)cc2)c1-c1ccc(S(C)(=O)=O)cc1
222 to 224	O=C(Nc1ccc(N2CC3CC3C2)nc1)c1cc2cc(F)cnc2n1Cc1cccc(F)c1 (stereo not drawn)
253 to 254	CCOC(=O)c1cnc2c3cc(NC(=O)CC(C)(C)C)ccc3ncn2c1=O
226 to 228	Cc1ccc(-c2ccc(C(=O)Nc3ccc4cc(CN5CCCC5)cnc4c3)cn2)cc1
111 to 112	Cc1c(F)cccc1CC(=Cc1ccccc1)[N+](=O)[O-]
139 to 142	Cn1cc(-c2cccc(C(F)(F)F)c2)c(=O)c(-c2ccc(Cl)cc2Cl)c1
123 to 124	COc1cc(CCCC2SC(=O)NC2=O)ccc1OCc1csc(-c2ccccc2)n1 (stereo not drawn)
247 to 248	CCCCOc1ccccc1C1=NC(=O)C2=NC=NC2=N1
106 to 112	O=C(O)c1ccc(OCCNC(=O)C2Cc3ccccc3N2S(=O)(=O)c2ccc(-c3cc(C(F)(F)F)ccc3Cl)cc2)cc1Cl (stereo not drawn)
91 to 94	CCOC(=O)C=C[C@H](Cc1ccc(-c2ccccc2)cc1)NC(=O)OC(C)(C)C
154 to 155	Cc1ncc(C#N)c(Nc2ccc3[nH]ccc3c2C)c1-c1cc2ccccc2o1
134 to 136	CCc1cc(C=O)c2ccc3cccc4ccc1c2c34
57 to 60	O=C(NCCBr)Oc1ccccc1
281 to 283	COc1cccc2c(=O)cc(-c3ccc(O)cc3)oc12
262	CC(C)c1ccc2nc(C(F)(F)F)c(C(=O)Nc3nccs3)c(O)c2c1
105 to 107	COc1ccc(/C=C/C(=O)/C=C/c2ccc(OC(F)(F)F)cc2)cc1
